This is an account of results in patent publication US4296032A (priority 1979, dated 1981).

Type in all cases: cell-based
One experiment relates to Proteus sp. C889. The experiment can be described thus: MIC of ampicillin in the presence of the inhibitor, Proteus sp. C889. The procedure: (§1) The MIC of ampicillin was determined in the presence of the pivaloyloxymethyl ester of 6-β-bromopenicillanic acid (inhibitor).
The test system of another experiment is Klebsiella aerogenes E70. The experiment can be described thus: MIC of ampicillin in the presence of the inhibitor, Klebsiella aerogenes E70. The protocol:
as §1

The subject of another experiment is E. coli JT. 39. The experiment can be described thus: MIC of ampicillin in the presence of the inhibitor, E. coli JT. 39. The procedure: as §1
The test system of a further experiment is Staph. aureus Russell. The experiment can be described thus: MIC of ampicillin in the presence of the inhibitor, Staph. aureus Russell. The procedure:
as §1

On to `CC(C)(C)C(=O)OCOC(=O)[C@@H]1N2C(=O)[C@@H](Br)[C@H]2SC1(C)C` [pivaloyloxymethyl 6β-bromopenicillanate], for which the “MIC of Ampicillin” value with Proteus sp. C889 (inhibitor conc. 5 μg/ml) is 31 µg/mL; in the experiment with Proteus sp. C889 (inhibitor conc. 20 μg/ml) it was 8 µg/mL; in the experiment with Klebsiella aerogenes E70 (inhibitor conc. 5 μg/ml), 12.5 µg/mL; with Klebsiella aerogenes E70 (inhibitor conc. 20 μg/ml), 6.2 µg/mL; in the experiment with E. coli JT. 39 (inhibitor conc. 5 μg/ml), 4 µg/mL; in the experiment on E. coli JT. 39 (inhibitor conc. 20 μg/ml), 2 µg/mL. The “MIC of Ampicillin” value came to 3.1 µg/mL in the experiment with Staph. aureus Russell (inhibitor conc. 5 μg/ml) and 0.78 µg/mL with Staph. aureus Russell (inhibitor conc. 20 μg/ml).
